Laboratory results as given in US9242996B2 (Novartis AG, priority 2013, dated 2016).

Biological target: activated ERK2 (Homo sapiens (Human), UniProt P28482)
Experiment: Activated ERK2 (20 pM) Kinase Assay (AlphaScreen, ERKtide phosphorylation)
Type: biochemical
Details: 0.02 nM ERK2, 400 nM ERKtide peptide, 35 μM ATP, 30 min preincubation
Method in brief: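 Activated human ERK2 (0.02 nM) preincubated 30 min with compounds, then 400 nM ERKtide and 35 μM ATP added for 4 h at ambient temperature in HEPES pH 7.5, MgCl2, DTT, Tween-20, BSA. EDTA stop; phospho-peptide read by AlphaScreen after overnight dark incubation; four-parameter IC50.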

Chain of activated ERK2 (P28482 whole entry): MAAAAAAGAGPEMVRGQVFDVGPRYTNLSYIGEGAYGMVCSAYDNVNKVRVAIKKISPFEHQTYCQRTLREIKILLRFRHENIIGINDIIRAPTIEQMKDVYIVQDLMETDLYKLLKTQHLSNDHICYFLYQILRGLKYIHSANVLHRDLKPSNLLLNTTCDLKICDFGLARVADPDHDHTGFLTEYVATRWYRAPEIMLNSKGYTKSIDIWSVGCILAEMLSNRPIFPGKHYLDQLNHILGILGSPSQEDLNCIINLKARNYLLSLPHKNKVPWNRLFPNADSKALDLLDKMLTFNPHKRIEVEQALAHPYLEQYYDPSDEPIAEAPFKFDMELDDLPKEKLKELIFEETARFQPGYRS

Row | SMILES | IC50 [nM]
1 | Nc1ncc([C@H]2CC[C@H](O)CC2)cc1-c1ccc(C(=O)N[C@H](CO)c2cccc(Cl)c2)c(F)c1 [Example 442, 4-(2-amino-5-((1r,4S)-4-hydroxy-cyclohexyl)pyridin-3-yl)-N-((S)-1-(3-chlorophenyl)-2-hydroxyethyl)-2-fluorobenzamide] | 0.339
2 | C[C@@H](NC(=O)c1ccc(-c2cc([C@H]3CC[C@H](O)CC3)cnc2N)cc1F)c1cc(F)cc(S(C)(=O)=O)c1 [Example 443, 4-(2-amino-5-((1r,4R)-4-hydroxy-cyclohexyl)pyridin-3-yl)-2-fluoro-N-((R)-1-(3-fluoro-5-(methylsulfonyl)phenyl)ethyl) benzamide] | 0.345
3 | Nc1ncc([C@H]2CC[C@@H](F)CC2)nc1-c1ccc(C(=O)N[C@H](CO)c2cccc(Cl)c2)c(F)c1 [Example 448, 4-(3-amino-6-((1s,4R)-4-fluorocyclohexyl)pyrazin-2-yl)-N-((S)-1-(3-chlorophenyl)-2-hydroxyethyl)-2-fluorobenzamide] | 0.371
4 | Nc1ncc([C@H]2CC[C@H](F)CC2)nc1-c1ccc(C(=O)N[C@H](CO)c2cccc(Cl)c2)c(F)c1 [Example 449, 4-(3-amino-6-((1r,4S)-4-fluorocyclohexyl)pyrazin-2-yl)-N-((S)-1-(3-chlorophenyl)-2-hydroxyethyl)-2-fluorobenzamide] | 0.184
5 | N#CC1CCC(c2cnc(N)c(-c3ccc(C(=O)N[C@H](CO)c4cc(F)cc(Br)c4)c(F)c3)n2)CC1 (stereo partly drawn) [Example 450, (S)-4-(3-amino-6-(4-cyanocyclohexyl)pyrazin-2-yl)-N-(1-(3-bromo-5-fluorophenyl)-2-hydroxyethyl)-2-fluorobenzamide] | 1.5
6 | Nc1ncc([C@@H]2CC[C@H](O)[C@H](O)C2)nc1-c1ccc(C(=O)N[C@H](CO)c2cc(F)cc(I)c2)c(F)c1 [Example 462, 4-(3-amino-6-((1R,3R,4S)-3,4-dihydroxy-cyclohexyl)pyrazin-2-yl)-2-fluoro-N-((S)-1-(3-fluoro-5-iodophenyl)-2-hydroxyethyl) benzamide] | 0.135
7 | Nc1ncc([C@H]2CC[C@@H](O)[C@@H](O)C2)nc1-c1ccc(C(=O)N[C@H](CO)c2cc(F)cc(I)c2)c(F)c1 [Example 464, 4-(3-amino-6-((1S,3S,4R)-3,4-dihydroxy-cyclohexyl)pyrazin-2-yl)-2-fluoro-N-((S)-1-(3-fluoro-5-iodophenyl)-2-hydroxyethyl) benzamide] | 0.137
8 | Nc1ncc([C@H]2CC[C@@H](O)[C@@H](O)C2)nc1-c1ccc(C(=O)N[C@H](CO)c2cc(F)cc(Br)c2)c(F)c1 [Example 466, 4-(3-amino-6-((1S,3S,4R)-3,4-dihydroxy-cyclohexyl)pyrazin-2-yl)-2-fluoro-N-((S)-1-(3-fluoro-5-bromophenyl)-2-hydroxyethyl) benzamide] | 0.218
9 | Nc1ncc([C@@H]2CC[C@H](O)[C@H](O)C2)nc1-c1ccc(C(=O)N[C@H](CO)c2cc(F)cc(Br)c2)c(F)c1 [Example 468, 4-(3-amino-6-((1R,3R,4S)-3,4-dihydroxy-cyclohexyl)pyrazin-2-yl)-2-fluoro-N-((S)-1-(3-fluoro-5-bromophenyl)-2-hydroxyethyl) benzamide] | 0.251
10 | CO[C@H]1CC[C@H](c2cnc(N)c(-c3ccc(C(=O)N[C@H](CO)c4cc(F)cc(Br)c4)c(F)c3)n2)C[C@@H]1O [Example 469, 4-(3-amino-6-((1S,3S,4S)-3-hydroxy,4-methoxylcyclo-hexyl)pyrazin-2-yl)-2-fluoro-N-((S)-1-(3-fluoro-5-bromophenyl)-2-hydroxyethyl) benzamide] | 0.136
11 | Nc1ncc([C@H]2CCC(F)(F)[C@H](O)C2)nc1-c1ccc(C(=O)N[C@H](CO)c2cccc(Cl)c2)c(F)c1 [Example 470, 4-(3-amino-6-((1S,3R)-4,4-difluoro-3-hydroxycyclo-hexyl)pyrazin-2-yl)-N-((S)-1-(3-chlorophenyl)-2-hydroxyethyl)-2-fluorobenzamide] | 0.221
12 | Nc1ncc([C@@H]2CCC(F)(F)[C@H](O)C2)nc1-c1ccc(C(=O)N[C@H](CO)c2cccc(Cl)c2)c(F)c1 [Example 471, 4-(3-amino-6-((1R,3R)-4,4-difluoro-3-hydroxycyclo-hexyl)pyrazin-2-yl)-N-((S)-1-(3-chlorophenyl)-2-hydroxyethyl)-2-fluorobenzamide] | 0.483
13 | Nc1ncc([C@@H]2CCC(F)(F)[C@@H](O)C2)nc1-c1ccc(C(=O)N[C@H](CO)c2cccc(Cl)c2)c(F)c1 [Example 472, 4-(3-amino-6-((1R,3S)-4,4-difluoro-3-hydroxycyclo-hexyl)pyrazin-2-yl)-N-((S)-1-(3-chlorophenyl)-2-hydroxyethyl)-2-fluorobenzamide] | 0.179
14 | Nc1ncc(C(=O)N2CCOCC2)nc1-c1ccc(C(=O)N[C@H](CO)c2cc(F)cc(Br)c2)c(F)c1 [Example 473, (S)-4-(3-amino-6-(morpholine-4-carbonyl)pyrazin-2-yl)-N-(1-(3-bromo-5-fluorophenyl)-2-hydroxyethyl)-2-fluorobenzamide] | 10.5
15 | Nc1ncc(C(=O)N2CCOCC2)cc1-c1ccc(C(=O)N[C@H](CO)c2cc(F)cc(Br)c2)c(F)c1 [Example 474, (S)-4-(2-amino-5-(morpholine-4-carbonyl)pyridin-3-yl)-N-(1-(3-bromo-5-fluorophenyl)-2-hydroxyethyl)-2-fluorobenzamide] | 1.56
16 | Nc1ncc(C(=O)N2CCC(CO)CC2)nc1-c1ccc(C(=O)N[C@H](CO)c2cc(F)cc(Br)c2)c(F)c1 [Example 475, (S)-4-(3-amino-6-(4-(hydroxymethyl)piperidine-1-carbonyl)pyrazin-2-yl)-N-(1-(3-bromo-5-fluorophenyl)-2-hydroxyethyl)-2-fluorobenzamide] | 9.68

Stronger by IC50, values ahead:

Row | IC50 [nM] | SMILES
17 | 0.02 | NC[C@@H](NC(=O)c1ccc(-c2nc(C3CCOCC3)cnc2N)cc1F)c1cccc(Br)c1 [Example 414, (S)-N-(2-amino-1-(3-bromophenyl)ethyl)-4-(3-amino-6-(tetrahydro-2H-pyran-4-yl)pyrazin-2-yl)-2-fluorobenzamide]
18 | 0.105 | Nc1ncc(C2CCC(F)(F)CC2)nc1-c1ccc(C(=O)N[C@H](CO)c2cccc(Cl)c2)c(F)c1 [Example 435, (S)-4-(3-amino-6-(4,4-difluoro-cyclohexyl)pyrazin-2-yl)-N-(1-(3-chlorophenyl)-2-hydroxyethyl)-2-fluorobenzamide]
19 | 0.0485 | Nc1ncc([C@H]2CC[C@H](O)CC2)nc1-c1ccc(C(=O)N[C@H](CO)c2cccc(Br)c2)c(F)c1 [Example 436, 4-(3-amino-6-((1r,4S)-4-hydroxy-cyclohexyl)pyrazin-2-yl)-N-((S)-1-(3-bromophenyl)-2-hydroxyethyl)-2-fluorobenzamide]
20 | 0.0701 | Nc1ncc([C@H]2CC[C@@H](O)CC2)cc1-c1ccc(C(=O)N[C@H](CO)c2cccc(Cl)c2)c(F)c1 [Example 440, 4-(2-amino-5-((1s,4R)-4-hydroxy-cyclohexyl)pyridin-3-yl)-N-((S)-1-(3-chlorophenyl)-2-hydroxyethyl)-2-fluorobenzamide]
21 | 0.0559 | COC(=O)N[C@H]1CC[C@H](c2cnc(N)c(-c3ccc(C(=O)N[C@H](CO)c4cc(F)cc(Br)c4)c(F)c3)n2)CC1 [Example 441, Methyl ((1S,4r)-4-(5-amino-6-(4-(((S)-1-(3-bromo-5-fluorophenyl)-2-hydroxyethyl)carbamoyl)-3-fluorophenyl)pyrazin-2-yl)cyclohexyl) carbamate]
22 | 0.0442 | N#CC1CCC(c2cnc(N)c(-c3ccc(C(=O)N[C@H](CO)c4cc(F)cc(Br)c4)c(F)c3)n2)CC1 (stereo partly drawn) [Example 451, (S)-4-(3-amino-6-(4-cyanocyclohexyl)pyrazin-2-yl)-N-(1-(3-bromo-5-fluorophenyl)-2-hydroxyethyl)-2-fluorobenzamide]
23 | 0.0823 | CNC[C@@H](NC(=O)c1ccc(-c2nc([C@H]3CC[C@H](O)C(F)(F)C3)cnc2N)cc1F)c1cc(F)cc(Br)c1 [Example 458]
24 | 0.0261 | Nc1ncc([C@@H]2CC[C@@H](O)C(F)(F)C2)nc1-c1ccc(C(=O)N[C@H](CO)c2cc(F)cc(Br)c2)c(F)c1 [Example 459, 4-(3-amino-6-((1R,4R)-3,3-difluoro-4-hydroxy-cyclohexyl)pyrazin-2-yl)-2-fluoro-N-((S)-1-(3-fluoro-5-bromophenyl)-2-hydroxyethyl) benzamide]
25 | 0.0397 | Nc1ncc([C@H]2CC[C@H](O)C(F)(F)C2)nc1-c1ccc(C(=O)N[C@H](CO)c2cc(F)cc(Br)c2)c(F)c1 [Example 460, 4-(3-amino-6-((1S,4S)-3,3-difluoro-4-hydroxy-cyclohexyl)pyrazin-2-yl)-2-fluoro-N-((S)-1-(3-fluoro-5-bromophenyl)-2-hydroxyethyl) benzamide]
26 | 0.00431 | Nc1ncc([C@@H]2CC[C@@H](O)[C@H](O)C2)nc1-c1ccc(C(=O)N[C@H](CO)c2cc(F)cc(I)c2)c(F)c1 [Example 461, 4-(3-amino-6-((1R,3R,4R)-3,4-dihydroxy-cyclohexyl)pyrazin-2-yl)-2-fluoro-N-((S)-1-(3-fluoro-5-iodophenyl)-2-hydroxyethyl) benzamide]
27 | 0.0055 | Nc1ncc([C@H]2CC[C@H](O)[C@@H](O)C2)nc1-c1ccc(C(=O)N[C@H](CO)c2cc(F)cc(I)c2)c(F)c1 [Example 463, 4-(3-amino-6-((1S,3S,4S)-3,4-dihydroxy-cyclohexyl)pyrazin-2-yl)-2-fluoro-N-((S)-1-(3-fluoro-5-iodophenyl)-2-hydroxyethyl) benzamide]
28 | 0.0187 | Nc1ncc([C@@H]2CC[C@@H](O)[C@H](O)C2)nc1-c1ccc(C(=O)N[C@H](CO)c2cc(F)cc(Br)c2)c(F)c1 [Example 465, 4-(3-amino-6-((1R,3R,4R)-3,4-dihydroxy-cyclohexyl)pyrazin-2-yl)-2-fluoro-N-((S)-1-(3-fluoro-5-bromophenyl)-2-hydroxyethyl) benzamide]
29 | 0.0446 | Nc1ncc([C@H]2CC[C@H](O)[C@@H](O)C2)nc1-c1ccc(C(=O)N[C@H](CO)c2cc(F)cc(Br)c2)c(F)c1 [Example 467, 4-(3-amino-6-((1S,3S,4S)-3,4-dihydroxy-cyclohexyl)pyrazin-2-yl)-2-fluoro-N-((S)-1-(3-fluoro-5-bromophenyl)-2-hydroxyethyl) benzamide]
